Here are results for 12 molecules from article PMC6563099, “Novel Thienopyrimidine Derivative, RP-010, Induces β-Catenin Fragmentation and Is Efficacious against Prostate Cancer Cells” (Cancers, 2019).

Common to all, as to format: cell-based
The subject of test [1] is PC-3. Nature of the test: MTT cytotoxicity assay, PC-3 prostate cancer cells. The conditions noted are these: Homo sapiens, PC-3, MTT assay; means ± SDs of three independent experiments; read-out: IC50 ± SD, Prostate Cancer Cells, PC-3. As for the experimental part: (§1) All the cells were cultured as adherent monolayers in culture flasks, and were used to determine the anti-cancer efficacy of RP-010. DMEM supplemented with 4.5 g of glucose, 10% fetal bovine serum (FBS) and 1% penicillin/streptomycin, was used to augment cell growth. Finally, the cells were incubated and grown in a humidified incubator containing 5% CO2 at 37 °C [50]. […] Cells were obtained from frozen stocks and cell passaging (up to P4) was performed at 80% cell confluency, using PBS and trypsin + 2.2-mM EDTA.
(§2) MTT assays were used to determine the cytotoxicity of the RP compounds, to PC cell lines, as previously described.
For orientation: Tetrazolium dyes change colour on reduction, which living cells bring about.

The subject of test [2] is DU145. Nature of the test: MTT cytotoxicity assay, DU145 prostate cancer cells. The conditions noted are these: Homo sapiens, DU-145, MTT assay; means ± SDs of three independent experiments; read-out: IC50 ± SD, Prostate Cancer Cells, DU145. As for the experimental part:
as §1, §2

The test system of test [3] is CRL-1459. In words: MTT cytotoxicity assay, CRL-1459 normal colon epithelial cells. The conditions noted are these: Homo sapiens, normal colon epithelial cell line, means ± SDs of three independent experiments, read-out: IC50 ± SD, Non-Prostate Cells, CRL-1459. How it is done:
as §1, §2

The test system of test [4] is CHO. Nature of the test: MTT cytotoxicity assay, CHO cells. The conditions noted are these: Cricetulus griseus, Chinese hamster ovarian cell line, means ± SDs of three independent experiments, read-out: IC50 ± SD, Non-Prostate Cells, CHO. As for the experimental part: as §1, §2

One may read the IC50 as the concentration needed to halve the response being measured. As for `O=c1[nH]c(-c2ccccc2)nc2sc3c(c12)CCCC3` [RP1], the IC50 in test [1], in test [2], in test [3] and in test [4] was greater than 100 µM each time.
With `O=c1[nH]c(-c2ccc(F)cc2)nc2sc3c(c12)CCCC3` [RP2], the IC50 in test [1], in test [2], in test [3] and in test [4] was greater than 100 µM throughout.
Consider `O=c1[nH]c(-c2ccc(Cl)cc2)nc2sc3c(c12)CCCC3` [RP3], for which the IC50 in test [1], in test [2], in test [3] and in test [4] was greater than 100 µM in each case.
As for `O=c1[nH]c(-c2ccc(Cl)cc2Cl)nc2sc3c(c12)CCCC3` [RP4], the IC50 in test [1] is 73.4 ± 3.1 µM; in test [2], greater than 100 µM; in test [3] it was greater than 100 µM; in test [4] it was greater than 100 µM.
As for `O=c1[nH]c(-c2cccc([N+](=O)[O-])c2)nc2sc3c(c12)CCCC3` [RP5], the IC50 in test [1], in test [2], in test [3] and in test [4] was greater than 100 µM in each case.
As to `O=c1[nH]c(-c2ccc([N+](=O)[O-])cc2)nc2sc3c(c12)CCCC3` [RP6], the IC50 in test [1], in test [2], in test [3] and in test [4] was greater than 100 µM each time.
On to `Cc1ccc(-c2nc3sc4c(c3c(=O)[nH]2)CCCC4)cc1` [RP7], for which the IC50 in test [1], in test [2], in test [3] and in test [4] was greater than 100 µM each time.
As for `N#Cc1ccc(-c2nc3sc4c(c3c(=O)[nH]2)CCCC4)cc1` [RP8], the IC50 was 6.4 ± 0.5 µM in test [1], greater than 100 µM in test [2], greater than 100 µM in test [3] and greater than 100 µM in test [4].
Consider `COc1cccc(-c2nc3sc4c(c3c(=O)[nH]2)CCCC4)c1` [RP9], for which the IC50 in test [1] was 2.8 ± 1.1 µM; in test [2] it was greater than 100 µM; in test [3] it was greater than 100 µM; in test [4] it was greater than 100 µM.
Turning to `COc1ccc(-c2nc3sc4c(c3c(=O)[nH]2)CCCC4)cc1OC` [RP11], the IC50 in test [1] was 6.6 ± 0.7 µM; in test [2], 2.7 ± 0.5 µM; in test [3], greater than 100 µM; in test [4], greater than 100 µM.
Regarding `COc1cc(OC)cc(-c2nc3sc4c(c3c(=O)[nH]2)CCCC4)c1` [RP12], the IC50 in test [1] is 6.9 ± 1 µM; in test [2], greater than 100 µM; in test [3] it was greater than 100 µM; in test [4], greater than 100 µM.
With `COc1cccc(-c2nc3sc4c(c3c(=O)[nH]2)CCCC4)c1O` [RP13], the IC50 in test [1], in test [2], in test [3] and in test [4] was greater than 100 µM throughout.
